Results from patent publication US6458577B1, “Methods of culturing and assaying a virus in a specimen and compositions and cell lines for doing the same” (priority 1997, dated 2002).
Values joined by “and” are separate entries in the source; they are usually repeats but may differ in a detail not shown here. Equal values may be shown once. Marks after values point to notes of the source that are not given here.

Assays:
CMV in MRC-5 cells = experiment: CMV shell vial culture in NaB-treated MRC-5 cells, immunofluorescent staining, count of stained nuclei; format: cell-based, human; conditions: for counts of positive stained nuclei from 2 shell vials: 80 mM sodium butyrate 24 hours before infection, MRC-5, cell age 2 days; for MRC-5 cells # of stained nuclei: 2 mM CaCl2, 1% DMSO, 10^-5M dexamethasone after infection
Method: (§1) The cells were then treated with a 5 mM sodium butyrate (NaB) tissue culture solution, prepared by dissolving the appropriate amount of NaB in tissue culture media and filtering the solution, and incubated for 16 to 24 hours. After incubation the NaB and tissue culture media is removed and the treated cells are inoculated with 0.2 ml of CMV inoculum originally from a clinical specimen obtained from urine and prepared by putting the specimen into a viral transport medium containing Hank's buffer, 1% bovine albumin and the antibiotics penicillin (200 units/ml) and streptomycin (200 μg/ml) and the fungizone amphotericin (0.5 μg/ml). After inoculation the shell vials are centrifuged at 700×g for 45 minutes at 23° C. After centrifugation, 0.5 ml of fresh media is added to each vial and the vials are incubated at 37° C. for 16 to 24 hours. After incubation the media is removed and the cell layers are rinsed with phosphate buffered saline (PBS), fixed with cold acetone for 10 minutes, and rinsed again with PBS.
(§2) After fixing, the cells are stained by adding 100 μl of CMV monoclonal antibody (mAb), incubated at 37° C. for 45 minutes and then rinsed with PBS. The CMV mAb used is E-13 monoclonal antibody against immediate early (IE) antigen of CMV. This antibody is used as a primary antibody in the first step of staining and is available from Accurated Chemical and Scientific Co., Westbury, N.Y. After the first staining step 100 μl of biotin which is conjugated with antimouse IgG is added followed by additional incubation at 37° C. for 45 minutes. The biotin complex is available from Boerhinger Mannheim Co., Indianapolis, Ind. The cells are rinsed again with PBS after incubation and then incubated with 100 μl of streptavidin conjugated with fluorescein isothiocyanate (FITC) for 45 minutes at 37° C. The streptavidin complex is also available from Boerhinger Mannheim Co., Indianapolis, Ind. After a final rinse with PBS, a coverslip removed from the shell vial is mounted on the slide which is then examined under a fluorescence equipped microscope manufactured in Germany by Carl Zeiss, Inc., and available from W. Nuhsbaum, McHenry, II. The specific apple-green stained nuclei were counted. The results are reported in Table 1 as positive stained nuclei as an average of four shell vials.
Conventionally, human embryonic lung (HEL) fibroblast cells, such as the MRC-5 cell line which is available from Diagnostic Hybrids, Inc., Athens, Ohio, are used worldwide for CMV culture and viral isolation.
These examples were prepared using the same procedure as Example 1, except that the concentration of NaB used was varied and both mink lung cells and MRC-5 cells were used. Also, the MRC-5 were treated with NaB before infection and 2 mM CaCl2, 1% DMSO and 10^−5M dexamethasone after infection. Table 3 indicates the concentration of NaB used and the results obtained.
These examples used the same procedure as Example 1 for CMV growth except that the age of the cells were varied, the cells were treated with 80 mM sodium butyrate 24 hours before infection, and the MCR-5 cells were treated 2 mM calcium chloride (CaCl2), 1% dimethyl sulfoxide (DMSO)and 10^−5M dexamethasone after infection.
These examples used the same procedure as Example 1 for CMV growth except that the age of the cells were varied, the cells were treated with 80 mM sodium butyrate 24 hours before infection, and the MRC-5 cells were treated 2 mM calcium chloride (CaCl2), 1% dimethyl sulfoxide (DMSO), and 10^−5M dexamethasone after infection. The cell age is measured as the time after seeding of the cells in the shell vial.

HSV-1 in mink lung cells = experiment: HSV-1 shell vial culture in NaB-treated mink lung cells, foci of cytopathic effect under light microscope; format: cell-based; conditions: for cpe = foci of cytopathic effect: mink lung cells, average of two shell vials
Method: (§3) Mink lung cells available from American Type Culture Collection ATTC No. CCL64 are provided. The cells are received in frozen vials from ATCC and are prepared by first thawing in a 37° C. water bath. The thawed cells are removed from the bath and cultured in a tissue culture flask with Opti MEM culture medium supplemented with 5% fetal calf serum and non-essential amino acids, available from Life Technologies, Inc., of Gaithersburg, Md., and the antibiotics penicillin (100 units/ml), streptomycin (100 μg/ml) and the fungizone amphotericin (0.25 μg/ml). The cultured cells reach a complete monolayer in about 3 to 4 days. The mink lung cells are propagated by trypsinization and approximately 2.5×10^5 dispersed cells per shell vial are seeded in shell vials with cover slips. The shell vials are incubated at 37° C. for 24 hours or until the cells form a monolayer.
Mink lung cells were prepared as described in Example 1. Cells were then infected with HSV-1 (originally from clinical specimens but passaged once in tissue culture so virus content is assured). The HSV-1 culture fluid was diluted 1:1000 before use for inoculation. In each shell vial, 0.2 ml of inoculum was used. After centrifuging for 45 minutes at 700×g at 23° C., 0.5 ml of Opti-MEM with 2% fetal calf serum was added to each vial and incubated overnight at 37° C. The following day, the cytopathic effect of the inoculated culture was observed under light microscope. The results are reported in Table 2 and are from the average of two shell vials.

[1] = system: CMV in mink lung cells (ATCC No. CCL64); experiment: CMV shell vial culture in NaB-treated mink lung cells, immunofluorescent staining of IE antigen, count of stained nuclei; format: cell-based; conditions: for Treated: average # of nuclei staining from three shell vials: 80 mM sodium butyrate 24 hours before CMV infection; for Treated: average # of nuclei staining from three shell vials / counts of positive stained nuclei from 2 shell vials / # of Foci (average # of stained nuclei counted from three shell vials): mink lung; for counts of positive stained nuclei from 2 shell vials: 80 mM sodium butyrate 24 hours before infection; for # of Foci (average # of stained nuclei counted from three shell vials): 80 mM sodium butyrate; for # positive stained nuclei: average of four shell vials
Method: as §3, §1
as §2, with “vials. […]” for “vials.”
These examples were prepared using the same procedure as Example 1, except that the concentration of NaB used was varied and both mink lung cells and MRC-5 cells were used. Also, the MRC-5 were treated with NaB before infection and 2 mM CaCl2, 1% DMSO and 10^−5M dexamethasone after infection. Table 3 indicates the concentration of NaB used and the results obtained. […]
These examples used the same procedure as Example 1 for CMV growth except that the time of treatment with sodium butyrate was varied, i.e., the cells were treated with 80 mM sodium butyrate for different times before infection, and the MRC-5 cells were treated with 2 mM calcium chloride (CaCl2), 1% dimethyl sulfoxide (DMSO) and 10^−5M dexamethasone after infection.

[2] = system: CMV in mink lung cells (ATCC No. CCL64); experiment: as above; format: cell-based; conditions: for # of Foci (average # of stained nuclei counted from three shell vials): 80 mM sodium butyrate, mink lung

CCCC(=O)[O-].[Na+] [NaB, sodium butyrate]
Treated: average # of nuclei staining from three shell vials (CMV in MRC-5 cells; 80 mM sodium butyrate 24 hours before CMV infection, MRC-5, cell age 4 days, CaCl2, DMSO, dexamethasone after infection): 4
counts of positive stained nuclei from 2 shell vials (CMV in MRC-5 cells; CaCl2, DMSO, dexamethasone after infection, inoculum 10^-0 (no dilution)): 39/29
counts of positive stained nuclei from 2 shell vials (CMV in MRC-5 cells; CaCl2, DMSO, dexamethasone after infection, inoculum 10^-1 (1:10 dilution)): 3/1
counts of positive stained nuclei from 2 shell vials (CMV in MRC-5 cells; CaCl2, DMSO, dexamethasone after infection, inoculum 10^-2 (1:100 dilution)): 0/0
MRC-5 cells # of stained nuclei (CMV in MRC-5 cells; NaB 10 mM before CMV infection): 2 and 3
MRC-5 cells # of stained nuclei (CMV in MRC-5 cells; NaB 20 mM before CMV infection): 2
MRC-5 cells # of stained nuclei (CMV in MRC-5 cells; NaB 80 mM before CMV infection): 7 and 6
cpe = foci of cytopathic effect (HSV-1 in mink lung cells; NaB 2.5 mM, 16 to 24 hours before HSV-1 infection (1:1000)): 18
cpe = foci of cytopathic effect (HSV-1 in mink lung cells; NaB 5.0 mM before HSV-1 infection): 20
cpe = foci of cytopathic effect (HSV-1 in mink lung cells; NaB 10.0 mM before HSV-1 infection): 22
cpe = foci of cytopathic effect (HSV-1 in mink lung cells; NaB 20 mM before HSV-1 infection): 12
sensitivity for HSV isolation and detection versus RK cells (in words) (HSV-1 in mink lung cells; NaB treated mink lung cells, Table 2): comparable sensitivity
effect on susceptibility of mink lung cells to CMV infection at different cell age (in words) ([1]; 80 mM NaB, cell age 2 to 7 days, Table 5): enhanced the susceptibility
Treated: average # of nuclei staining from three shell vials ([1]; cell age 2 days): 123*
Treated: average # of nuclei staining from three shell vials ([1]; cell age 3 days): 121
Treated: average # of nuclei staining from three shell vials ([1]; cell age 5 days): 78
Treated: average # of nuclei staining from three shell vials ([1]; cell age 7 days): 30
counts of positive stained nuclei from 2 shell vials ([1]; cell age 2 days, inoculum 10^-0 (no dilution)): 232/220
counts of positive stained nuclei from 2 shell vials ([1]; cell age 2 days, inoculum 10^-1 (1:10 dilution)): 44/52
counts of positive stained nuclei from 2 shell vials ([1]; cell age 2 days, inoculum 10^-2 (1:100 dilution)): 5/2
counts of positive stained nuclei from 2 shell vials ([1]; cell age 3 days, inoculum 10^-0 (no dilution)): 242/309
counts of positive stained nuclei from 2 shell vials ([1]; cell age 3 days, inoculum 10^-1 (1:10 dilution)): 47/43
counts of positive stained nuclei from 2 shell vials ([1]; cell age 3 days, inoculum 10^-2 (1:100 dilution)): 1/2
# of Foci (average # of stained nuclei counted from three shell vials) ([1]; time of treatment 4 hours before CMV infection): 234
# of Foci (average # of stained nuclei counted from three shell vials) ([1]; time of treatment 6 hours before CMV infection): 276
# of Foci (average # of stained nuclei counted from three shell vials) ([1]; time of treatment 18 hours before CMV infection): 360*
response of mink lung cells to NaB treatment versus NaB treated MRC-5 cells (in words) ([1]; CMV infection, Table 3): better response
# positive stained nuclei ([1]; NaB 5 mM, 16 to 24 hours before CMV inoculation, mink lung cells): 22
Mink lung cells # of stained nuclei ([1]; NaB 10 mM before CMV infection): 7 and 9
# positive stained nuclei ([1]; NaB 10 mM before CMV inoculation, mink lung cells): 30
Mink lung cells # of stained nuclei ([1]; NaB 20 mM before CMV infection): 12
# positive stained nuclei ([1]; NaB 20 mM before CMV inoculation, mink lung cells): 38
Mink lung cells # of stained nuclei ([1]; NaB 40 mM before CMV infection): 12 and 23
# positive stained nuclei ([1]; NaB 40 mM before CMV inoculation, mink lung cells): 71
Mink lung cells # of stained nuclei ([1]; NaB 80 mM before CMV infection): 26 and 32
# positive stained nuclei ([1]; NaB 80 mM before CMV inoculation, mink lung cells): 85
increase in number of stained cells as compared with untreated mink lung cells ([1]; NaB 80 mM, CMV, mink lung cells): about 10 fold
sensitivity for CMV isolation and detection versus MRC-5 cells (in words) ([1]; NaB treated mink lung cells, Table 1): far superior sensitivity
optimum concentration for growth of CMV in mink lung cells ([1]; Table 1): about 80 mM
virus detection at high dilution of inoculum (in words) ([1]; mink lung cells treated with NaB 80 mM, Table 4): the virus is still detected
# of Foci (average # of stained nuclei counted from three shell vials) ([2]; time of treatment 2 hours before CMV infection): 126
# of Foci (average # of stained nuclei counted from three shell vials) ([2]; time of treatment 8 hours before CMV infection): 306
enhancement of CMV expression ([2]; 2 hour treatment of mink lung cells with NaB (80 mM)): more than a two fold enhancement
time of treatment required for optimum enhancement of CMV expression ([2]; mink lung cells, 80 mM NaB): at least 8 hours
